US20070128217A1 (priority 2003, published 2007)

What was measured:
[1] = tested on: antibodies in sera from SARS patients (sera 1a, 1b, 2, 6, 37, 62, London, SARS-yellow, SARS-green); assay type: binding, human; set-up: Binding of serum 6 to linear peptides of protein X1 of SARS-CoV Urbani / Binding of serum 37 to linear peptides of protein X1 of SARS-CoV Urbani / Binding of serum 6 to looped/cyclic peptide (PEPSCAN-ELISA) / Binding of serum 37 to looped/cyclic peptide (PEPSCAN-ELISA) / Binding of serum 37 to looped/cyclic peptides of protein X1 of SARS-CoV Urbani / Binding of serum 6 to linear peptides of protein X2 / Binding of serum 37 to linear peptides of protein X2 / Binding of serum 37 to looped/cyclic peptides of protein X2 of SARS-CoV Urbani / Binding of serum 6 to linear peptides of protein M of SARS-CoV Urbani / Binding of serum 37 to linear peptides of protein M of SARS-CoV Urbani / Binding of serum 6 to looped/cyclic peptides of protein M of SARS-CoV Urbani / Binding of serum 37 to looped/cyclic peptides of protein M of SARS-CoV Urbani / Binding of serum 6 to linear peptides of protein X3 of SARS-CoV Urbani / Binding of serum 37 to linear peptides of protein X3 of SARS-CoV Urbani / Binding of serum 37 to looped/cyclic peptides of protein X3 of SARS-CoV Urbani / Binding of serum 6 to linear peptides of protein X4 of SARS-CoV Urbani / Binding of serum 37 to linear peptides of protein X4 of SARS-CoV Urbani / Binding of serum 37 to looped/cyclic peptides of protein X4 of SARS-CoV Urbani / Binding of serum 6 to linear peptides of protein X5 of SARS-CoV Urbani / Binding of serum 37 to linear peptides of protein X5 of SARS-CoV Urbani / Binding of serum 37 to looped/cyclic peptides of protein X5 of SARS-CoV Urbani / Binding of serum 6 to linear peptides of protein N of SARS-CoV Urbani / Binding of serum 37 to linear peptides of protein N of SARS-CoV Urbani / Binding of serum 6 to linear peptide (PEPSCAN-ELISA) / Binding of serum 1a to looped/cyclic peptides of protein N of SARS-CoV Urbani / Binding of serum 1b to looped/cyclic peptides of protein N of SARS-CoV Urbani / Binding of serum 2 to looped/cyclic peptides of protein N of SARS-CoV Urbani / Binding of serum 6 to looped/cyclic peptides of protein N of SARS-CoV Urbani / Binding of serum 37 to looped/cyclic peptides of protein N of SARS-CoV Urbani / Binding of serum 62 to looped/cyclic peptides of protein N of SARS-CoV Urbani / Binding of serum London to looped/cyclic peptides of protein N of SARS-CoV Urbani / Binding of serum SARS-green to looped/cyclic peptides of protein N of SARS-CoV Urbani: unit not given here
[2] = tested on: control sera (pooled serum of ten healthy LUMC hospital workers; commercial negative donor pooled serum from the Dutch bloodbank); assay type: binding, human; set-up: Binding of Control serum LUMC to linear peptides / Binding of Control serum Blood-bank to linear peptides / Binding of Control serum LUMC to looped peptides / Binding of Control Serum Blood-Bank to Looped peptides / Binding of Control serum LUMC to linear peptides of the protein M of SARS-CoV Urbani / Binding of Control serum Blood-bank to linear peptides of the protein M of SARS-CoV Urbani / Binding of Control serum LUMC to looped peptides of the protein M of SARS-CoV Urbani / Binding of Control Serum Blood-Bank to Looped peptides of the protein M of SARS-CoV Urbani: unit not given here
[3] = tested on: rabbit serum obtained by immunizing a rabbit with the SARS-CoV strain Frankfurt 1; assay type: binding; set-up: Binding of a rabbit serum to linear peptides / Binding of a rabbit serum to looped peptides / Rabbit serum linear peptides / Rabbit serum looped peptides / Binding of a rabbit serum to linear peptides of protein N of SARS-CoV Urbani (Rabbit serum linear peptides) / Binding of a rabbit serum to looped/cyclic peptides of protein N of SARS-CoV Urbani (Rabbit serum looped peptides): unit not given here

LLKTHRMCKYTQSTA
0.6: Binding of serum 2 to linear peptides of protein X2 [1] | Binding of serum 6 to linear peptides of protein X2 [1] | Binding of serum SARS-green to linear peptides of protein X2 [1] | Binding of Control serum LUMC to linear peptides [2]
0.7: Binding of serum 37 to linear peptides of protein X2 [1] | Binding of serum 62 to linear peptides of protein X2 [1] | Binding of Control serum Blood-bank to linear peptides [2]
0.8: Binding of serum 1a to linear peptides of protein X2 [1] | Binding of serum SARS-yellow to linear peptides of protein X2 [1]
0.3: Binding of serum 1b to looped/cyclic peptides of protein X2 of SARS-CoV Urbani [1] | Binding of serum 6 to looped/cyclic peptides of protein X2 of SARS-CoV Urbani [1] | Binding of a rabbit serum to looped peptides [3]
0.2: Binding of serum 2 to looped/cyclic peptides of protein X2 of SARS-CoV Urbani [1] | Binding of serum 37 to looped/cyclic peptides of protein X2 of SARS-CoV Urbani [1] | Binding of serum London to looped/cyclic peptides of protein X2 of SARS-CoV Urbani [1] | Binding of serum SARS-green to looped/cyclic peptides of protein X2 of SARS-CoV Urbani [1] | Binding of serum SARS-yellow to looped/cyclic peptides of protein X2 of SARS-CoV Urbani [1]
0.4: Binding of serum 1a to looped/cyclic peptides of protein X2 of SARS-CoV Urbani [1] | Binding of serum 62 to looped/cyclic peptides of protein X2 of SARS-CoV Urbani [1] | Binding of Control Serum Blood-Bank to Looped peptides [2] | Binding of Control serum LUMC to looped peptides [2]
0.5: Binding of serum 1b to linear peptides of protein X2 [1] | Binding of serum London to linear peptides of protein X2 [1] | Binding of a rabbit serum to linear peptides [3]

LLKVTAFQHQNSKKT
0.6: Binding of a rabbit serum to linear peptides [3]
0.2: Binding of serum 1a to linear peptides of protein X2 [1] | Binding of serum 2 to looped/cyclic peptides of protein X2 of SARS-CoV Urbani [1] | Binding of serum 6 to linear peptides of protein X2 [1] | Binding of serum 6 to looped/cyclic peptides of protein X2 of SARS-CoV Urbani [1] | Binding of serum London to linear peptides of protein X2 [1] | Binding of serum London to looped/cyclic peptides of protein X2 of SARS-CoV Urbani [1]
0.5: Binding of serum 37 to linear peptides of protein X2 [1] | Binding of Control serum LUMC to looped peptides [2]
0.0: Binding of serum 1b to linear peptides of protein X2 [1]
0.3: Binding of serum 1b to looped/cyclic peptides of protein X2 of SARS-CoV Urbani [1] | Binding of serum 37 to looped/cyclic peptides of protein X2 of SARS-CoV Urbani [1] | Binding of serum SARS-green to looped/cyclic peptides of protein X2 of SARS-CoV Urbani [1] | Binding of serum SARS-yellow to looped/cyclic peptides of protein X2 of SARS-CoV Urbani [1] | Binding of Control serum Blood-bank to linear peptides [2] | Binding of Control serum LUMC to linear peptides [2] | Binding of a rabbit serum to looped peptides [3]
0.4: Binding of serum 1a to looped/cyclic peptides of protein X2 of SARS-CoV Urbani [1] | Binding of serum 62 to looped/cyclic peptides of protein X2 of SARS-CoV Urbani [1] | Binding of Control Serum Blood-Bank to Looped peptides [2]
0.1: Binding of serum 2 to linear peptides of protein X2 [1] | Binding of serum 62 to linear peptides of protein X2 [1] | Binding of serum SARS-green to linear peptides of protein X2 [1] | Binding of serum SARS-yellow to linear peptides of protein X2 [1]

LLLFVTIYSHLLLVA
0.2: Binding of serum 6 to looped/cyclic peptide (PEPSCAN-ELISA) [1] | Binding of serum London to linear peptides of protein X1 of SARS-CoV Urbani [1] | Binding of serum London to looped/cyclic peptide (PEPSCAN-ELISA) [1] | Binding of serum SARS-green to looped/cyclic peptide (PEPSCAN-ELISA) [1]
0.0: Binding of serum SARS-green to linear peptides of protein X1 of SARS-CoV Urbani [1]
0.7: Binding of serum 1a to linear peptides of protein X1 of SARS-CoV Urbani [1]
0.4: Binding of serum 2 to looped/cyclic peptide (PEPSCAN-ELISA) [1] | Binding of serum 62 to linear peptides of protein X1 of SARS-CoV Urbani [1] | Binding of serum 62 to looped/cyclic peptide (PEPSCAN-ELISA) [1] | Binding of serum SARS-yellow to looped/cyclic peptide (PEPSCAN-ELISA) [1] | Binding of Control serum Blood-bank to linear peptides [2] | Binding of Control serum LUMC to linear peptides [2]
0.5: Binding of serum 1a to looped/cyclic peptide (PEPSCAN-ELISA) [1] | Binding of serum 1b to linear peptides of protein X1 of SARS-CoV Urbani [1] | Binding of serum 37 to linear peptides of protein X1 of SARS-CoV Urbani [1] | Binding of serum 37 to looped/cyclic peptide (PEPSCAN-ELISA) [1] | Binding of Control Serum Blood-Bank to Looped peptides [2] | Binding of Control serum LUMC to looped peptides [2] | Binding of a rabbit serum to looped peptides [3]
0.1: Binding of a rabbit serum to linear peptides [3]
0.6: Binding of serum 2 to linear peptides of protein X1 of SARS-CoV Urbani [1]
0.3: Binding of serum 1b to looped/cyclic peptide (PEPSCAN-ELISA) [1] | Binding of serum 6 to linear peptides of protein X1 of SARS-CoV Urbani [1] | Binding of serum SARS-yellow to linear peptides of protein X1 of SARS-CoV Urbani [1]

LLLLFVTIYSHLLLV
0.3: Binding of serum 1b to looped/cyclic peptide (PEPSCAN-ELISA) [1] | Binding of serum 6 to looped/cyclic peptide (PEPSCAN-ELISA) [1] | Binding of serum SARS-green to linear peptides of protein X1 of SARS-CoV Urbani [1] | Binding of serum SARS-yellow to linear peptides of protein X1 of SARS-CoV Urbani [1]
0.4: Binding of serum 6 to linear peptides of protein X1 of SARS-CoV Urbani [1] | Binding of serum 62 to linear peptides of protein X1 of SARS-CoV Urbani [1]
0.8: Binding of serum 2 to linear peptides of protein X1 of SARS-CoV Urbani [1]
0.2: Binding of serum London to linear peptides of protein X1 of SARS-CoV Urbani [1] | Binding of serum London to looped/cyclic peptide (PEPSCAN-ELISA) [1] | Binding of serum SARS-green to looped/cyclic peptide (PEPSCAN-ELISA) [1]
0.6: Binding of serum 37 to looped/cyclic peptide (PEPSCAN-ELISA) [1] | Binding of serum 62 to looped/cyclic peptide (PEPSCAN-ELISA) [1] | Binding of Control Serum Blood-Bank to Looped peptides [2] | Binding of Control serum LUMC to linear peptides [2]
0.1: Binding of a rabbit serum to linear peptides [3]
0.5: Binding of serum 1a to looped/cyclic peptide (PEPSCAN-ELISA) [1] | Binding of serum 1b to linear peptides of protein X1 of SARS-CoV Urbani [1] | Binding of serum 2 to looped/cyclic peptide (PEPSCAN-ELISA) [1] | Binding of serum 37 to linear peptides of protein X1 of SARS-CoV Urbani [1] | Binding of serum SARS-yellow to looped/cyclic peptide (PEPSCAN-ELISA) [1] | Binding of Control serum Blood-bank to linear peptides [2] | Binding of Control serum LUMC to looped peptides [2] | Binding of a rabbit serum to looped peptides [3]
0.7: Binding of serum 1a to linear peptides of protein X1 of SARS-CoV Urbani [1]
